What was measured:
[1] = system: luciferase production in the lung; assay: Delivery of Firefly Luciferase (FFL) mRNA by intratracheal administration via catheter, IVIS imaging; type: in vivo, male CD1 mice; conditions: for FFLuc (Avr. Rad.): single intratracheal administration, lung; for in vivo FFL protein production (FIG. 8), in words: intratracheal delivery via catheter of FFL mRNA lipid nanoparticles to mice
Procedure: Lipid nanoparticle formulations 1, 2 and 4 were administered via intratracheal pulmonary delivery. Compound B was the only cationic lipid evaluated via intratracheal pulmonary delivery with lipid nanoparticle formulation 2. Compound A was the only cationic lipid evaluated via intratracheal pulmonary delivery with lipid nanoparticle formulation 4. All other cationic lipids were evaluated via intratracheal pulmonary delivery with lipid nanoparticle formulation 1.
Lipid nanoparticle formulations 1, 2 and 4 listed in Table 1 comprising FFL mRNA, cationic lipid, DMG-PEG2000, cholesterol and DOPE were administered to male CD1 mice (6-8 weeks old) by a single intratracheal administration via Catheter® (50 μl/animal) while under anesthesia. At approximately 24 hours post-dose, the animals were dosed with luciferin at 150 mg/kg (60 mg/mi) by intraperitoneal injection at 2.5 ml/kg. After 5-15 minutes, all animals were imaged using an IVIS imaging system to measure luciferase production in the lung.

[2] = Lipid degradability by mouse lung S9 in vitro; type: in vitro ADME; conditions: 2 μM lipid, 2.4 mg/ml lung S9, pH 7.4, 37° C., time points up to 48 hr
Procedure: (§1) Assay format—4 or 5 time points in triplicate.
(§2) • 1) Plan experiment, compounds, and reagents. • 2) Dissolve each lipid in DMSO or IPA to make 5 mM stock, then dilute by IPA to 200 μM work solution. • 3) Thaw mouse and human lung S9. • 4) Prepare pooled incubation mixture as in the reaction formulas below on ice. • 5) Aliquot 495 μL incubation mixture prepared in step #4 to each well of a 2 mL 96-well plate. • 6) Add 5 μL compound to each well to initiate the reaction. Take t0 samples (as in step #8). • 7) Cover the plate with 2 layers of breathable seals and incubate the plate on an orbital shaker at 150 rpm in a 37° C. CO2 incubator. • 8) At each time point, pipette to mix the incubation mixture 5 times, then take 70 μL of incubation mixture to a fresh plate. Store in −20° C. freezer immediately. • 9) Add 210 μL (3× volume) of the cold stop solution to each well of the sample plates collected. Mix at 600 rpm on an orbital shaker for 15 min. • 10) Centrifuge the quenched plates at 3800 rpm for 10 min at 4° C. and transfer supernatant to fresh plates. • 11) Load the supernatant on filter plates and centrifuge again at 3800 rpm for 5 min at 4° C. Collect final samples in fresh plates for LC/MS. • 11. Time course and stop solutions: 4-5 Time points (hour): e.g. 0, 4, 8, 24, 48 hr stop solution: 1:1:1 ACN/MeOH/IPA (v/v/v) with propranolol & MC3 as internal standard. Store at 4° C.

[3] = Lipid degradability by human lung S9 in vitro; type: in vitro ADME; conditions: 2 μM lipid, 2.4 mg/ml lung S9, pH 7.4, 37° C., time points up to 48 hr
Procedure: as §1, §2

[4] = dose 10 μg/Animal, lipid nanoparticle formulation 1, approximately 24 hours post-dose
[5] = dose 5 μg/Animal, lipid nanoparticle formulation 1, approximately 24 hours post-dose

| In vitro degradation Mouse lung S9 [2] [h] | In vitro degradation Human lung S9 [3] | SMILES | FFLuc (Avr. Rad.) [1, 4] | FFLuc (Avr. Rad.) [1, 5] | in vivo FFL protein production (FIG. 8), in words [1] | also measured |
| --- | --- | --- | --- | --- | --- | --- |
| – | – | CCCCCCCCOC(=O)CC(CC(=O)OCCCCCCCC)(OC(=O)CCN(C)C)C(=O)OCCCCCCCC [Compound B, reference compound] | – | – | – | FFLuc (Avr. Rad.) ([1]; dose 10 μg/Animal, lipid nanoparticle formulation 2, approximately 24 hours post-dose): 139,058 p/s/cm^2/sr |
| – | – | CC(C)CCCC(C)[C@H]1CCC2C3CC=C4C[C@@H](OC(=O)CCc5c[nH]cn5)CC[C@]4(C)C3CC[C@@]21C (stereo partly shown) [ICE, imidazole cholesterol ester, reference compound] | 7,508 p/s/cm^2/sr | – | – | – |
| – | – | CCCCCCCCCCCCC(O)CN(CCCC(=O)Oc1c(OC)cc(C(=O)OCCCN(C)C)cc1OC)CC(O)CCCCCCCCCCCC (stereo not shown) [Compound A, reference compound] | – | – | – | FFLuc (Avr. Rad.) ([1]; dose 10 μg/Animal, lipid nanoparticle formulation 4, approximately 24 hours post-dose): 221,320 p/s/cm^2/sr |
| 6.8 | 17.1 h | CCCCC/C=C/COC(=O)CC(CC(=O)OC/C=C/CCCCC)(OC(=O)CCC(=O)Oc1c(OC)cc(C(=O)OCCCN(C)C)cc1OC)C(=O)OC/C=C/CCCCC [Compound III] | 353,012 p/s/cm^2/sr | – | – | – |
| 16.2 | 20.2 h | CCCCCCCCOC(=O)CC(CC(=O)OCCCCCCCC)(OC(=O)CCC(=O)Oc1c(OC)cc(C(=O)OCCN(C)C)cc1OC)C(=O)OCCCCCCCC [Compound I] | – | 158,516 p/s/cm^2/sr | high levels of in vivo FFL protein production | – |
| 1.3 | 14.8 h | CCCCCC#CCOC(=O)CC(CC(=O)OCC#CCCCCC)(OC(=O)CCC(=O)Oc1c(OC)cc(C(=O)OCCCN(C)C)cc1OC)C(=O)OCC#CCCCCC [Compound V] | 567,300 p/s/cm^2/sr | – | – | – |
| 16.6 | 20.2 h | CCCCCCCCOC(=O)CC(CC(=O)OCCCCCCCC)(OC(=O)CCC(=O)Oc1c(OC)cc(C(=O)OCCCN(C)C)cc1OC)C(=O)OCCCCCCCC [Compound II] | – | 592,250 p/s/cm^2/sr | high levels of in vivo FFL protein production | – |
| – | – | CCCCCCCCOC(=O)CC(CC(=O)OCCCCCCCC)(OC(=O)/C=C/C(=O)Oc1c(OC)cc(C(=O)OCCCN(C)C)cc1OC)C(=O)OCCCCCCCC [Compound X] | 173,197 p/s/cm^2/sr | – | – | – |
| 36 | long (over 48 h | CCCCCCCCOC(=O)CC(CC(=O)OCCCCCCCC)(OC(=O)CCC(=O)Oc1c(OC)cc(/C=C/C(=O)OCCCN(C)C)cc1OC)C(=O)OCCCCCCCC [Compound XXVI] | – | 140,620 p/s/cm^2/sr | high levels of in vivo FFL protein production | – |

— patent publication US20260224489A1, “TRICINE AND CITRIC ACID-BASED CATIONIC LIPIDS WITH AROMATIC HEAD GROUPS” (SANOFI, priority 2023, published 2026)
